Test results published in patent publication US20120129870A1, “PIPERAZINYL DERIVATIVES USEFUL AS MODULATORS OF THE NEUROPEPTIDE Y2 RECEPTOR” (priority 2007, published 2012).

How the values were obtained:
NPY Y2 receptor [1] = target: T1, NPY Y2 receptor (Homo sapiens, UniProt P49146); experiment: Neuropeptide Y2 pKB assay (FLIPR, KAN-Ts cells stably expressing chimeric G proteins); format: cell-based; conditions: apparent pKB, modified Cheng-Prusoff correction
T1 sequence (P49146 1-381): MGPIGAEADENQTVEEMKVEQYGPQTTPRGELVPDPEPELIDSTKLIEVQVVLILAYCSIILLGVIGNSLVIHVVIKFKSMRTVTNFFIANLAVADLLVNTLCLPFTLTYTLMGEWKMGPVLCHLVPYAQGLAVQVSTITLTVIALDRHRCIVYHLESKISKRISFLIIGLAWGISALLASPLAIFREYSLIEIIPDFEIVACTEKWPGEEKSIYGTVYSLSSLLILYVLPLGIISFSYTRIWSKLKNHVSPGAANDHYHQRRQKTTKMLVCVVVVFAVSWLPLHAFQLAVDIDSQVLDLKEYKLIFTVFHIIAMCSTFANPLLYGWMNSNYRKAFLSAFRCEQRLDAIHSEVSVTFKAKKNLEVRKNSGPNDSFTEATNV
Method: The assay was performed using the fluorimetric imaging plate reader (FLIPR) format as described in Dautzenberg, F. M., Biochemical Pharmacology 2005, 69, 1493.
KAN-Ts cells stably expressing chimeric G proteins were seeded at a density of 100,000 cells into poly-d-lysine coated 384-well blackwall, clear-bottom microtiter plates (Corning, N.Y.). One day later, the medium was removed and 50 μl loading medium DMEM high glucose, without serum, supplemented with 10 mM HEPES-acid, 0.1% BSA, 5 mM probenecid and 2 μM Fluo-3AM was added. Cells were loaded for 1 h at 37° C., washed twice with 50 μl assay buffer (5 mM HEPES-acid, 140 mM NaCl, 1 mM MgCl2, 5 mM KCl, 10 mM glucose) and then 30 μl assay buffer was added. Cells were further pre-incubated at room temperature before adding agonists or agonists plus antagonists in 20 μl assay buffer and then measured on a T-channel fluorometric imaging plate reader (FLIPR, Molecular Devices, Sunnyvale, Calif.). Antagonistic potency values were converted to apparent pKB values using a modified Cheng-Prusoff correction. Apparent pKB was calculated as pKB=−log IC50/1+[conc agonist/EC50].

NPY Y2 receptor [2] = target: T1, NPY Y2 receptor; experiment: Neuropeptide Y2 radioligand binding assay ([125I]PYY, KAN-Ts membranes); design: endogenous in cells; host or cells: KAN-Ts cells (membrane preparation); conditions: KAN-Ts membranes endogenously expressing Y2, [125I]PYY (80 pM), 1 h at rt
How it was run: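 Membranes from KAN-Ts cells with endogenous Y2 receptors, incubated with 80 pM [125I]PYY ± compound for 1 h at rt in HEPES/NaCl/CaCl2/MgSO4 buffer, then filtered and counted. Nonspecific binding defined with […]. IC50 from sigmoidal fit; Ki = IC50/(1+C/KD).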

Compound | Kb (NPY Y2 receptor [1]) [nM] | IC50 (NPY Y2 receptor [2]) [nM]
CCC(CC)C(=O)Nc1ccc(N2CCN(C(c3ccccc3)c3ncco3)CC2)c(F)c1 (single isomer, unassigned) [Compound 59, 2-Ethyl-N-{3-fluoro-4-[4-(oxazol-2-yl-phenyl-methyl)-piperazin-1-yl]-phenyl}-butyramide] | 200 | 96
CC[C@@H](C)C(=O)Nc1ccc(N2CCN(C(c3ccccc3)c3ncco3)CC2)c(F)c1 (stereo in doubt) [Compound 91, N-{3-Fluoro-4-[4-(oxazol-2-yl-phenyl-methyl)-piperazin-1-yl]-phenyl}-2-methyl-butyramide] | 158 | 240
CCc1noc(C(c2ccccc2)N2CCN(c3ccc(NC(=O)C(CC)CC)cc3F)CC2)n1 (stereo not drawn) [Compound 1, 2-Ethyl-N-(4-{4-[(3-ethyl-[1,2,4]-oxadiazol-5-yl)-phenyl-methyl]-piperazin-1-yl}-3-fluoro-phenyl)-butyramide] | 35.5 | 27
CCC(CC)C(=O)Nc1ccc(N2CCN(C(c3ccccc3)c3nc(C)no3)CC2)c(F)c1 (stereo not drawn) [Compound 2, 2-Ethyl-N-(3-fluoro-4-{4-[(3-methyl-[1,2,4]-oxadiazol-5-yl)-phenyl-methyl]-piperazin-1-yl}phenyl)-butyramide] | 39.8 | 27
CCC(CC)C(=O)Nc1ccc(N2CCN(C(c3ccccc3)c3cccnc3)CC2)c(F)c1 (stereo not drawn) [Compound 24, 2-Ethyl-N-{3-fluoro-4-[4-(phenyl-pyridin-3-yl-methyl)-piperazin-1-yl]-phenyl}-butyramide] | 79.4 | 40
CCC(CC)C(=O)Nc1ccc(N2CCN(C(c3ccccc3)c3ncccn3)CC2)c(F)c1 (stereo not drawn) [Compound 40, 2-Ethyl-N-{3-fluoro-4-[4-(phenyl-pyrimidin-2-yl-methyl)-piperazin-1-yl]-phenyl}-butyramide] | 100 | 52
O=C(Nc1ccc(N2CCN(C(c3ccccc3)c3ncco3)CC2)c(F)c1)C1CCCC1 (stereo not drawn) [Compound 54, Cyclopentanecarboxylic acid {3-fluoro-4-[4-(oxazol-2-yl-phenyl-methyl)-piperazin-1-yl]-phenyl}amide] | 10000 | 95
CCC(CC)C(=O)Nc1ccc(N2CCN(C(c3ccccc3)c3ncco3)CC2)c(C)c1 (stereo not drawn) [Compound 85, 2-Ethyl-N-{3-methyl-4-[4-(oxazol-2-yl-phenyl-methyl)-piperazin-1-yl]-phenyl}-butyramide] | 126 | 75
Cc1noc(C)c1C(=O)Nc1ccc(N2CCN(C(c3ccccc3)c3ncco3)CC2)c(F)c1 (stereo not drawn) [Compound 113, 3,5-Dimethyl-isoxazole-4-carboxylic acid {3-fluoro-4-[4-(oxazol-2-yl-phenyl-methyl)-piperazin-1-yl]-phenyl}-amide] | 200 | 140
CCC(CC)C(=O)Nc1ccc(N2CCN(C(c3cccc(F)c3)c3ncco3)CC2)c(C#N)c1 (stereo not drawn) [Compound 131, N-(3-Cyano-4-{4-[(3-fluoro-phenyl)-oxazol-2-yl-methyl]-piperazin-1-yl}-phenyl)-2-ethyl-butyramide] | 12.6 | 7
CCC(CC)C(=O)Nc1ccc(N2CCN(C(c3cccc(F)c3)c3ncco3)CC2)c(F)c1 (stereo not drawn) [Compound 132, 2-Ethyl-N-(3-fluoro-4-{4-[(3-fluoro-phenyl)-oxazol-2-yl-methyl]-piperazin-1-yl}-phenyl)-butyramide] | 63.1 | 45
CCC(CC)C(=O)Nc1ccc(N2CCN(C(c3ccccc3)c3nnc(C(C)C)o3)CC2)c(F)c1 (stereo not drawn) [Compound 160, 2-Ethyl-N-(3-fluoro-4-{4-[(5-isopropyl-[1,3,4]-oxadiazol-2-yl)-phenyl-methyl]-piperazin-1-yl}-phenyl)-butyramide] | 100 | 43

The remaining lines, values ahead:

Kb (NPY Y2 receptor [1]) [nM] | IC50 (NPY Y2 receptor [2]) [nM] | Compound
63.1 | 34 | CCC(CC)C(=O)Nc1ccc(N2CCN(C(c3ccccc3)c3ncco3)CC2)c(F)c1 (single isomer, unassigned) [Compound 60, 2-Ethyl-N-{3-fluoro-4-[4-(oxazol-2-yl-phenyl-methyl)-piperazin-1-yl]-phenyl}-butyramide]
79.4 | 33 | CCC(CC)C(=O)Nc1ccc(N2CCN(C(c3ccccc3)c3ccccc3)CC2)c(F)c1 [Compound 4, N-[4-(4-Benzhydryl-piperazin-1-yl)-3-fluoro-phenyl]-2-ethyl-butyramide]
50.1 | 40 | CCC(CC)C(=O)Nc1ccc(N2CCN(C(c3ccccc3)c3ncco3)CC2)c(F)c1 (stereo not drawn) [Compound 20, 2-Ethyl-N-{3-fluoro-4-[4-(oxazol-2-yl-phenyl-methyl)-piperazin-1-yl]-phenyl}-butyramide]
20 | 18 | CCC(CC)C(=O)Nc1ccc(N2CCN(C(c3ccccc3)c3ccccn3)CC2)c(F)c1 (stereo not drawn) [Compound 33, 2-Ethyl-N-{3-fluoro-4-[4-(phenyl-pyridin-2-yl-methyl)-piperazin-1-yl]-phenyl}-butyramide]
63.1 | 28 | CCC(CC)C(=O)Nc1ccc(N2CCN(C(c3ccccc3)c3nccs3)CC2)c(F)c1 (stereo not drawn) [Compound 39, 2-Ethyl-N-{3-fluoro-4-[4-(phenyl-thiazol-2-yl-methyl)-piperazin-1-yl]-phenyl}-butyramide]
50.1 | 22 | CCC(CC)C(=O)Nc1ccc(N2CCN(C(c3ccccc3)c3noc(C(C)C)n3)CC2)c(F)c1 (stereo not drawn) [Compound 82, 2-Ethyl-N-(3-fluoro-4-{4-[(5-isopropyl-[1,2,4]-oxadiazol-3-yl)-phenyl-methyl]-piperazin-1-yl}-phenyl)-butyramide]
31.6 | 38 | N#Cc1cc(NC(=O)[C@@H]2CCOC2)ccc1N1CCN(C(c2ccccc2)c2ncco2)CC1 (stereo partly drawn) [Compound 90, Tetrahydro-furan-3-carboxylic acid {3-cyano-4-[4-(oxazol-2-yl-phenyl-methyl)-piperazin-1-yl]-phenyl}-amide]
100 | 29 | CC(CC(F)(F)F)C(=O)Nc1ccc(N2CCN(C(c3ccccc3)c3ncco3)CC2)c(C#N)c1 (stereo not drawn) [Compound 110, N-{3-Cyano-4-[4-(oxazol-2-yl-phenyl-methyl)-piperazin-1-yl]-phenyl}-4,4,4-trifluoro-2-methyl-butyramide]
25.1 | 21 | CCC(CC)C(=O)Nc1ccc(N2CCN(C(c3ccc(F)cc3)c3ncco3)CC2)c(C#N)c1 (stereo not drawn) [Compound 139, N-(3-Cyano-4-{4-[(4-fluoro-phenyl)-oxazol-2-yl-methyl]-piperazin-1-yl}-phenyl)-2-ethyl-butyramide]
50.1 | 29 | CCC(CC)C(=O)Nc1ccc(N2CCN(C(c3ccc(OC)cc3)c3ncco3)CC2)c(C#N)c1 (stereo not drawn) [Compound 141, N-(3-Cyano-4-{4-[(4-methoxy-phenyl)-oxazol-2-yl-methyl]-piperazin-1-yl}-phenyl)-2-ethyl-butyramide]
63.1 | 33 | CCC(CC)C(=O)Nc1ccc(N2CCN(C(c3ccc(C#N)cc3)c3ncco3)CC2)c(C#N)c1 (stereo not drawn) [Compound 145, N-(3-Cyano-4-{4-[(4-cyano-phenyl)-oxazol-2-yl-methyl]-piperazin-1-yl}-phenyl)-2-ethyl-butyramide]
39.8 | 39 | CCc1nnc(C(c2ccccc2)N2CCN(c3ccc(NC(=O)C(CC)CC)cc3F)CC2)o1 (stereo not drawn) [Compound 153, 2-Ethyl-N-(4-{4-[(5-ethyl-[1,3,4]-oxadiazol-2-yl)-phenyl-methyl]-piperazin-1-yl}-3-fluoro-phenyl)-butyramide]
